We go through three molecules from paper PMC7028039, “Convergent evolution of the UbiA prenyltransferase family underlies the independent acquisition of furanocoumarins in plants” (The New Phytologist, 2019).

One series addresses T1, FcPT1b (Ficus carica, UniProt A0A6S4PSN9).
T1 construct: full CDS with transit peptide, pGWB502 (35S promoter), transient expression in Nicotiana benthamiana leaves, microsomes
T1 sequence (A0A6S4PSN9 1-422): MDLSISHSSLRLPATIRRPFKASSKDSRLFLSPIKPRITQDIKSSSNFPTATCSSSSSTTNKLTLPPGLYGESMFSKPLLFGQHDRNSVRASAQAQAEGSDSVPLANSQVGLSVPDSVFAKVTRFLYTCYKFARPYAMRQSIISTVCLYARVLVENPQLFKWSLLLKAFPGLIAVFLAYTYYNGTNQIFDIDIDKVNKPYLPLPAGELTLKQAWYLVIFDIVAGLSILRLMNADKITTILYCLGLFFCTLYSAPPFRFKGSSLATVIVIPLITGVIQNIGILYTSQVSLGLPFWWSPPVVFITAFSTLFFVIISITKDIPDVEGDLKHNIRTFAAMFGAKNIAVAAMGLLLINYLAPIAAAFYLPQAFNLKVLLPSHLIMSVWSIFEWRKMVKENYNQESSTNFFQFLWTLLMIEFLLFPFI
The experiment in a line: microsomal prenyltransferase assay, HPLC and LC-MS2 product identification. The settings on record: 50 µM umbelliferone, 200 µM DMAPP, 10 mM MgCl2; product demethylsuberosin (DMS). Format: biochemical.

Another series addresses FcPT1a (Ficus carica, UniProt A0A6S4Q0J8). The settings on record: read-out: apparent Km; co-substrate DMAPP; Mg2+; 28 °C. Here is the method:
microsomal prenyltransferase assay, HPLC-PDA, nonlinear fit on FcPT1a | The apparent K m values of FcPT1a for umbelliferone and DMAPP were determined

The subject of series [1] is CC(C)=CCOP(=O)(O)OP(=O)(O)O. The series can be described thus: cells, lysate or membranes. The settings on record: co-substrate umbelliferone, Mg2+, 28 °C.

On to `CC(C)=CCOP(=O)(O)OP(=O)(O)O` [dimethylallyl diphosphate], for which the “microsomal prenyltransferase assay, HPLC and LC-MS2 product identification” value at FcPT1b is “UDT reaction mixtures composed of microsomes containing recombinant FcPT1a/b proteins yielded an enzymatic reaction product”.
Usually Km stands for the concentration of substrate that gives half-maximal velocity. As for `O=c1ccc2ccc(O)cc2o1` [umbelliferone], the Km at FcPT1a amounted to 35 ± 4 µM. For the same molecule, the “microsomal prenyltransferase assay, HPLC and LC-MS2 product identification” value on FcPT1b is reported as “recombinant FcPT1a/b proteins yielded an enzymatic reaction product concomitant with the consumption of umbelliferone”.
Consider FcPT1a (Ficus carica), for which, in series [1], the Km amounted to 17 ± 1 µM.
